Test results taken from patent publication US20130165368A1, “ANTIMICROBIAL COMPOUNDS” (priority 2010, published 2013).
Values after ≈ are worked out from the molar mass of the structure shown. Where two headings read alike, the source gives them in different places.

Key:
Assay type in all cases: cell-based
[1] = tested on: Enterococcus faecium (VRE) 12185 Clin waste; experiment: MIC agar dilution, VRE strain 24
Description: (§1) Molar equivalent concentrations were used to allow comparison between compounds of differing molecular mass. Due to weighing difficulties, any compound in solid form was melted in a water bath prior to dilution. To make ten-times strength concentrations, which takes into account agar dilution, 0.0352 mmol of each compound was weighed into plastic universal bottles and 4 mL of sterile distilled water (SDW) was added. To produce a homogenous emulsion the universals were vortexed; once achieved the emulsions were serial diluted by adding 2 mL to 2 mL of SDW.
(§2) For every 100 mL of Isosensitest agar (IST) (CM0471; Oxoid, Basingstoke, England), 3.1 g of the IST powder was added to 100 mL SDW (as per manufacturer's instructions) and sterilised for 15 minutes at 121° C. Once sterilised, the molten agar was cooled to 50° C. in a water-bath. Subsequently 4.8 g of CCEY powder (BC2160; Bioconnections, Wetherby, England), also known as Brazier's medium, was added to 100 mL SDW for every 100 mL of agar needed. This was then sterilised for 15 minutes at 121° C. Once sterilised the molten agar was cooled to 50° C. in a water-bath and 4 mL of egg-yolk emulsion (S2073; TCS Biosciences Ltd, Buckingham, United Kingdom) and 1 mL of lysed defibrinated horse blood (HB035; TCS Biosciences Ltd, Buckingham, United Kingdom) were also added for every 100 mL needed. Horse blood lysis is achieved by dilution to half concentration with SDW; when fully lysed the mixture will turn dark red in colour.
(§3) 18 mL agar was added to each universal and then poured into sterile Petri dishes. This step creates a 1/10 dilution resulting in agar plates of the required strength. Control plates for each set of strains were created by adding 18 mL of agar to 2 mL of SDW.
(§4) Suspensions of each bacterial species were prepared with a density equal to that of a 0.5 McFarland standard using a densitometer. All suspensions were made using sterile distilled water and fresh 18-20 hour cultures. As a 0.5 McFarland standard contains 1.5×10^8 CFU/mL and the multipoint inoculators applies 1 μL spots of liquid, each bacterial suspension was diluted 1/15 (20 μL suspension to 280 μL sterile distilled water).
(§5) Bacterial suspensions were prepared from fresh 18-24 hour cultures as previously described. 1 μL of each strain was inoculated onto all 100 agar plates containing a different chemical concentration and the 2 control plates. This was done using a multipoint inoculator which inoculates 20 strains per plate. All plates were incubated for 22 hours at 37° C. in aerobic conditions.
(§6) Each plate was examined for bacterial growth after 22 and 48 hours, with each being incubated in between examinations. A positive result was recorded as growth of ≧10 colonies. A negative result was recorded as growth of <10 colonies as this is equivalent to 99.9% inhibition. The lowest concentration of chemical that inhibited growth was recorded as the MIC. The results are recorded in Table IV below, where the numbers are quoted in mmol/L.
(§7) Given the positive performance of the ethoxylates of lauryl alcohol in reducing the MIC for a number of the micro-organisms tested, further MIC testing of Laureth-1 [C12E1] through to Laureth-8 [C12E8] was conducted on each of the following: • 10 strains of vancomycin-resistant enterococci (VRE)—listed in Table V below; and • 20 strains of methicillin-resistant Staphylococcus aureus (MRSA)—listed in Table VI.
(§8) The alkanol, alkanol derivatives, agar plates, and inocula were all prepared in the same way as described above.
(§9) The plates were examined in the same manner as described above and the results are recorded in Table VII below, where the numbers are quoted in mmol/L.

MRSA EMRSA 16 00036/95 = experiment: MIC agar dilution, MRSA strain 46; conditions: Staphylococcus aureus
Description: as §1, §2, §3, §4, §5, §6, §7, §8, §9

MRSA EMRSA 15 1729/98 = experiment: MIC agar dilution, MRSA strain 42; conditions: Staphylococcus aureus
Description: as §1, §2, §3, §4, §5, §6, §7, §8, §9

[2] = tested on: Enterococcus faecalis (VRE) MB 726; experiment: MIC agar dilution, VRE strain 28
Description: as §1, §2, §3, §4, §5, §6, §7, §8, §9

[3] = tested on: Enterococcus faecalis (VRE) MB 1969; experiment: MIC agar dilution, VRE strain 27
Description: as §1, §2, §3, §4, §5, §6, §7, §8, §9

MRSA EMRSA 16 00998/95 = experiment: MIC agar dilution, MRSA strain 47; conditions: Staphylococcus aureus
Description: as §1, §2, §3, §4, §5, §6, §7, §8, §9

MRSA EMRSA 16 18200/95 = experiment: MIC agar dilution, MRSA strain 48; conditions: Staphylococcus aureus
Description: as §1, §2, §3, §4, §5, §6, §7, §8, §9

[4] = tested on: Enterococcus faecium (VRE) MB 305; experiment: MIC agar dilution, VRE strain 25
Description: as §1, §2, §3, §4, §5, §6, §7, §8, §9

MRSA EMRSA 15 19972/98 = experiment: MIC agar dilution, MRSA strain 39; conditions: Staphylococcus aureus
Description: as §1, §2, §3, §4, §5, §6, §7, §8, §9

MRSA EMRSA 16 07924/95 = experiment: MIC agar dilution, MRSA strain 49; conditions: Staphylococcus aureus
Description: as §1, §2, §3, §4, §5, §6, §7, §8, §9

[5] = tested on: Enterococcus faecium (VRE) MB 3137; experiment: MIC agar dilution, VRE strain 26
Description: as §1, §2, §3, §4, §5, §6, §7, §8, §9

MRSA BEL 97597 = experiment: MIC agar dilution, MRSA strain 33; conditions: Staphylococcus aureus
Description: as §1, §2, §3, §4, §5, §6, §7, §8, §9

Staphylococcus aureus = experiment: MIC agar dilution, micro-organism 13 (6571); conditions: Staphylococcus aureus, Staphylococcus aureus 6571, read-out: MIC
Summary of the method: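 Twofold dilutions of compound emulsions in water were set in Isosensitest agar with Brazier's CCEY medium, egg yolk and lysed horse blood. Spots of 1 µL from 0.5 McFarland suspensions diluted 1/15 were incubated aerobically at 37 °C and read at 22 and 48 h. MIC (mmol/L) was the lowest concentration giving <10 colonies.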

Question: With `CCCCCCCCCCCCOCCOCCOCCOCCO` [L4, Tetraethylene Glycol Monododecyl Ether] as the compound, how does the MIC ([1]; 22 hrs) read?
Answer: 220 µM (≈ 79.8 µg/mL)

Question: What about the MIC ([1]; 48 hrs) of the same compound?
Answer: 440 µM (≈ 160 µg/mL)

Question: And the MIC (MRSA EMRSA 16 00036/95; 22 hrs)?
Answer: 55 µM (≈ 19.9 µg/mL)

Question: And the MIC (MRSA EMRSA 16 00036/95; 48 hrs)?
Answer: 55 µM (≈ 19.9 µg/mL)

Question: And the MIC (MRSA EMRSA 15 1729/98; 22 hrs)?
Answer: 55 µM (≈ 19.9 µg/mL)

Question: What about the MIC (MRSA EMRSA 15 1729/98; 48 hrs) of the same compound?
Answer: 55 µM (≈ 19.9 µg/mL)

Question: And the MIC ([2]; 22 hrs)?
Answer: 220 µM (≈ 79.8 µg/mL)

Question: What about the MIC ([2]; 48 hrs) of the same compound?
Answer: 220 µM (≈ 79.8 µg/mL)

Question: And the MIC ([3]; 22 hrs)?
Answer: 220 µM (≈ 79.8 µg/mL)

Question: What about the MIC ([3]; 48 hrs) of the same compound?
Answer: 220 µM (≈ 79.8 µg/mL)

Question: And the MIC (MRSA EMRSA 16 00998/95; 22 hrs)?
Answer: 55 µM (≈ 19.9 µg/mL)

Question: And the MIC (MRSA EMRSA 16 00998/95; 48 hrs)?
Answer: 55 µM (≈ 19.9 µg/mL)

Question: What about the MIC (MRSA EMRSA 16 18200/95; 22 hrs) of the same compound?
Answer: 55 µM (≈ 19.9 µg/mL)

Question: What about the MIC (MRSA EMRSA 16 18200/95; 48 hrs) of the same compound?
Answer: 55 µM (≈ 19.9 µg/mL)

Question: And the MIC ([4]; 22 hrs)?
Answer: 110 µM (≈ 39.9 µg/mL)

Question: What about the MIC ([4]; 48 hrs) of the same compound?
Answer: 110 µM (≈ 39.9 µg/mL)

Question: And the MIC (MRSA EMRSA 15 19972/98; 22 hrs)?
Answer: 55 µM (≈ 19.9 µg/mL)

Question: What about the MIC (MRSA EMRSA 15 19972/98; 48 hrs) of the same compound?
Answer: 55 µM (≈ 19.9 µg/mL)

Question: And the MIC (MRSA EMRSA 16 07924/95; 22 hrs)?
Answer: 55 µM (≈ 19.9 µg/mL)

Question: What about the MIC (MRSA EMRSA 16 07924/95; 48 hrs) of the same compound?
Answer: 55 µM (≈ 19.9 µg/mL)

Question: And the MIC ([5]; 22 hrs)?
Answer: 880 µM (≈ 319 µg/mL)

Question: And the MIC ([5]; 48 hrs)?
Answer: > 880 µM

Question: And the MIC (MRSA BEL 97597; 22 hrs)?
Answer: 55 µM (≈ 19.9 µg/mL)

Question: What about the MIC (MRSA BEL 97597; 48 hrs) of the same compound?
Answer: 55 µM (≈ 19.9 µg/mL)

Question: What about the MIC (Staphylococcus aureus; 22 h, 22 hrs) of the same compound?
Answer: 110 µM (≈ 39.9 µg/mL)

Question: And the MIC (Staphylococcus aureus; 48 h, 48 hrs)?
Answer: 110 µM (≈ 39.9 µg/mL)

Question: For `CCCCCCCCCCCCOCCOCCOCCOCCOCCO` [L5, Pentaethylene Glycol Monododecyl Ether], which MIC ([1]; 22 hrs) is on record?
Answer: 220 µM (≈ 89.5 µg/mL)

Question: And the MIC ([1]; 48 hrs)?
Answer: 220 µM (≈ 89.5 µg/mL)

Question: What about the MIC (MRSA EMRSA 16 00036/95; 22 hrs) of the same compound?
Answer: 110 µM (≈ 44.7 µg/mL)

Question: What about the MIC (MRSA EMRSA 16 00036/95; 48 hrs) of the same compound?
Answer: 110 µM (≈ 44.7 µg/mL)

Question: What about the MIC (MRSA EMRSA 15 1729/98; 22 hrs) of the same compound?
Answer: 110 µM (≈ 44.7 µg/mL)

Question: What about the MIC (MRSA EMRSA 15 1729/98; 48 hrs) of the same compound?
Answer: 110 µM (≈ 44.7 µg/mL)

Question: And the MIC ([2]; 22 hrs)?
Answer: 220 µM (≈ 89.5 µg/mL)

Question: What about the MIC ([2]; 48 hrs) of the same compound?
Answer: 220 µM (≈ 89.5 µg/mL)

Question: What about the MIC ([3]; 22 hrs) of the same compound?
Answer: 220 µM (≈ 89.5 µg/mL)

Question: What about the MIC ([3]; 48 hrs) of the same compound?
Answer: 220 µM (≈ 89.5 µg/mL)

Question: What about the MIC (MRSA EMRSA 16 00998/95; 22 hrs) of the same compound?
Answer: 110 µM (≈ 44.7 µg/mL)

Question: And the MIC (MRSA EMRSA 16 00998/95; 48 hrs)?
Answer: 110 µM (≈ 44.7 µg/mL)

Question: And the MIC (MRSA EMRSA 16 18200/95; 22 hrs)?
Answer: 110 µM (≈ 44.7 µg/mL)

Question: What about the MIC (MRSA EMRSA 16 18200/95; 48 hrs) of the same compound?
Answer: 110 µM (≈ 44.7 µg/mL)

Question: And the MIC ([4]; 22 hrs)?
Answer: 110 µM (≈ 44.7 µg/mL)

Question: What about the MIC ([4]; 48 hrs) of the same compound?
Answer: 110 µM (≈ 44.7 µg/mL)

Question: What about the MIC (MRSA EMRSA 15 19972/98; 22 hrs) of the same compound?
Answer: 110 µM (≈ 44.7 µg/mL)

Question: And the MIC (MRSA EMRSA 15 19972/98; 48 hrs)?
Answer: 110 µM (≈ 44.7 µg/mL)

Question: What about the MIC (MRSA EMRSA 16 07924/95; 22 hrs) of the same compound?
Answer: 110 µM (≈ 44.7 µg/mL)

Question: And the MIC (MRSA EMRSA 16 07924/95; 48 hrs)?
Answer: 110 µM (≈ 44.7 µg/mL)

Question: And the MIC ([5]; 22 hrs)?
Answer: 440 µM (≈ 179 µg/mL)

Question: What about the MIC ([5]; 48 hrs) of the same compound?
Answer: > 880 µM

Question: What about the MIC (MRSA BEL 97597; 22 hrs) of the same compound?
Answer: 110 µM (≈ 44.7 µg/mL)

Question: And the MIC (MRSA BEL 97597; 48 hrs)?
Answer: 110 µM (≈ 44.7 µg/mL)

Question: And the MIC (Staphylococcus aureus; 22 h, 22 hrs)?
Answer: 110 µM (≈ 44.7 µg/mL)

Question: What about the MIC (Staphylococcus aureus; 48 h, 48 hrs) of the same compound?
Answer: 110 µM (≈ 44.7 µg/mL)
